Results reported in EP0513240B1, “LIQUID HARD SURFACE DETERGENT COMPOSITIONS CONTAINING ZWITTERIONIC DETERGENT SURFACTANT AND MONOETHANOLAMINE AND/OR BETA-AMINOALKANOL” (THE PROCTER & GAMBLE COMPANY, priority 1990, dated 1991).
Marks after values point to notes of the source that are not given here.

test: Solubility of selected diols in 20°C water; format: physicochemical; details: determined via laboratory measurements (values marked *)
Method: A particularly preferred type of solvent for these hard surface cleaner compositions comprises diols having from 6 to 16 carbon atoms in their molecular structure. Preferred diol solvents have a solubility in water of from about 0.1 to about 20 g/100 g of water at 20°C.

| Solubility | Structure (SMILES) |
| --- | --- |
| 12.0* g/100g H2O | OCC(O)c1ccccc1 (stereo not shown) [Phenyl-1,2-ethanediol] |
| 1.0* g/100g H2O | CCCCCCC(O)CO (stereo not shown) [1,2-Octanediol] |
| 20.0* g/100g H2O | OCC1CCC(CO)CC1 (stereo not shown) [1,4-Cyclohexanedimethanol] |
| 12.0* g/100g H2O | CC(O)(CO)c1ccccc1 (stereo not shown) [2-Phenyl-1,2-propanediol] |

test: not given; details: in 20°C water; values from published literature; cited from earlier work

| Structure (SMILES) | Solubility |
| --- | --- |
| CCCC(O)C(CC)CO (stereo not shown) [2-Ethyl-1,3-hexanediol] | 4.2 g/100g H2O |
| CC(C)(O)CCC(C)(C)O [2,5-Dimethyl-2,5-hexanediol] | 14.3 g/100g H2O |
| CC(C)C(O)C(C)(C)CO (stereo not shown) [2,2,4-Trimethyl-1,3-pentanediol] | 1.9 g/100g H2O |
